Experimental data from patent US20120225889A1, “USE OF MACROCYCLIC LACTONE DERIVATIVES FOR THE TREATMENT OF INFLAMMATORY DISORDERS” (PIRAMAL LIFE SCIENCES LIMITED, priority 2010, published 2012).

Experiments:
IL-6 = assay: Synovial tissue assay (spontaneous production): IL-6; type: cell-based; details: Homo sapiens, synovial tissue cells from rheumatoid arthritis patients, 16 h, read-out: IC50 of IL-6 inhibition
Description: The ability of compounds of the present invention to inhibit spontaneous production of cytokines from freshly isolated human synovial tissue cells was designed as in reference, Lancet, 29, 244-247, (1989) the disclosure of which is incorporated by reference for the teaching of the assay.
Synovial tissue was obtained from rheumatoid arthritis patients undergoing knee replacement surgery. […] Subsequently, the cells were washed 3 times with RPMI 1640 culture medium and resuspended in complete medium (RPMI 1640 culture medium supplemented with 5% FBS and 5% human serum-AB+(Sigma, USA) at a concentration of 1×10^6 cells/mL. The viability of synovial cells was determined by trypan blue dye exclusion and was uniformly ≧98%. For the experiment, 100 μL of cell suspension was added to the wells of a 96-well culture plate (Nunc, USA). Following cell plating, 100 μL of the culture medium and 1 μL of various concentrations of the test compound (test compound was dissolved in DMSO to obtain a stock solution of 20 mM. […] The IC50 values were calculated by a nonlinear regression method using the GraphPad software (Prism 3.03).

CEBPδ = assay: Gene expression profile using RTQ-PCR: CEBPδ; type: cell-based, human; details: 3 μM
Protocol: (§1) The effect of the compound of example 7 was measured in stimulated untreated cells from the monocytic cell line (THP-1), human monocytes and synovial cells from rheumatoid arthritis patient. The effect of the compound in the THP-1 cell line was measured in terms of gene expression and was expressed as fold changes as compared to the cell stimulated control with no drug treatment.
(§2) THP-1 cells, human monocytes and synovial cells were treated with compound of example 7 or vehicle (0.5% DMSO). Total RNA isolation using a commercial RNA extraction kit (Qiagen Corporation, Germany) The first-strand cDNA was synthesized from total RNA using first strand cDNA synthesis kit from Invitrogen Corporation (California, USA). This was followed by real time quantitative polymerase chain reaction (RTQ PCR) using gene specific primers and standard thermal program of initial denaturation at 95° C. for 5 min and cycles of 95° C. for 10 seconds, followed by 60° C. for 30 seconds (Realplex PCR machine from Eppendorf, Germany). Quantitative measurement of products made during PCR cycles was normalized against a housekeeping gene (Actin) and was used to measure the gene expression as fold changes as compared to respective control.

MMP13 = assay: Gene expression profile using RTQ-PCR: MMP13; type: cell-based, human; details: 3 μM
Protocol: as §1, §2

[1] = Human monocytes, 3 h, ± SE, N = 3

C/C=C/C(O)C(C)/C=C/C(=N\O)C(C)C(O)C(C)C1OC(=O)/C(OC)=C/C(C)=C/C(C)C(O)C(CC)C(O)C(C)C/C(C)=C/C=C/C1OC (stereo not shown) [Compound of example 7, (3Z,5E,13E,15E)-18-((5Z,6E,10E)-3,9-Dihydroxy-5-(hydroxymino)-4,8-dimethyldodeca-6,10-dien-2-yl)-9-ethyl-8,10-dihydroxy-3,17-dimethoxy-5,7,11,13-tetramethyl oxacyclooctadeca-3,5,13,15-tetraen-2-one]
IC50 (IL-6): 300 nM | CEBPδ gene expression (CEBPδ; [1]): −1.4 + 0.4 log fold change | CEBPδ gene expression (CEBPδ; Synovial cells, 12 h, N = 1): −1.1 log fold change | CEBPδ gene expression (CEBPδ; THP-1 cells, 12 h, ± SE, N = 3): −1.8 + 1.0 log fold change | MMP13 gene expression (MMP13; [1]): −2.2 + 2.0 log fold change | MMP13 gene expression (MMP13; Synovial cells, 12 h, N = 1): −4.0 log fold change | MMP13 gene expression (MMP13; THP-1 cells, 12 h, ± SE, N = 3): −4.1 + 3.5 log fold change
